In ChEMBL document CHEMBL5442175, “EUbOPEN Chemogenomics Library - PDSP Secondary Binding” (2024):
pKi: −log10 of the molar value.

Columns and labels:
[1] = target: 5-hydroxytryptamine receptor 1B (Homo sapiens, UniProt P28222); experiment: (§1) PDSP Secondary Binding target: HTR1B - Compounds are tested at 10 uM concentration, plate are incubated at room temperature in the dark for 90 minutes. Reaction are stopped by vacuum filtration onto 0.3% polyethyleneimine soaked filter mats using Filtermate harvester. Scintillation cocktail is then melted onto microwave-dried filters on a hot plate and the radio activity is counted in Microbia counter.
[2] = target: Sodium-dependent noradrenaline transporter (Homo sapiens, UniProt P23975); experiment: as §1, with “SLC6A2” for “HTR1B”
[3] = target: Sodium-dependent dopamine transporter (Homo sapiens, UniProt Q01959); experiment: as §1, with “SLC6A3” for “HTR1B”
[4] = target: Kappa-type opioid receptor (Homo sapiens, UniProt P41145); experiment: as §1, with “OPRK1” for “HTR1B”
Mu-type opioid receptor = Mu-type opioid receptor (Homo sapiens, UniProt P35372); experiment: as §1, with “OPRM1” for “HTR1B”
[5] = target: 5-hydroxytryptamine receptor 2B (Homo sapiens, UniProt P41595); experiment: as §1, with “HTR2B” for “HTR1B”
[6] = target: T1, Alpha-2A adrenergic receptor (Homo sapiens, UniProt P08913); experiment: as §1, with “ADRA2A” for “HTR1B”
T1 sequence (P08913 whole entry): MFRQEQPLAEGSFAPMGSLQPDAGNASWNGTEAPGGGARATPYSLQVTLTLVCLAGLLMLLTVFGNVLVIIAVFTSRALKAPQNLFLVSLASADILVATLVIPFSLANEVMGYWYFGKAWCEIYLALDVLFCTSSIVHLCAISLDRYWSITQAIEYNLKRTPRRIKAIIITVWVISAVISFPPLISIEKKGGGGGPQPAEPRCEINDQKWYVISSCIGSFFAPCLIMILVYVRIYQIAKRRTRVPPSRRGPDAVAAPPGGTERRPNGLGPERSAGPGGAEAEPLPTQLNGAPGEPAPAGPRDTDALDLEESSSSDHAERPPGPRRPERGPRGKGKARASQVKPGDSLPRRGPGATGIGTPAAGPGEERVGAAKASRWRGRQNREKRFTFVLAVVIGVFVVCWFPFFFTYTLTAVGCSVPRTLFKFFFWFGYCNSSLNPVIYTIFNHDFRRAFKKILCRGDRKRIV

[7] = target: T2, Alpha-2B adrenergic receptor (Homo sapiens, UniProt P18089); experiment: as §1, with “ADRA2B” for “HTR1B”
T2 sequence (P18089 whole entry): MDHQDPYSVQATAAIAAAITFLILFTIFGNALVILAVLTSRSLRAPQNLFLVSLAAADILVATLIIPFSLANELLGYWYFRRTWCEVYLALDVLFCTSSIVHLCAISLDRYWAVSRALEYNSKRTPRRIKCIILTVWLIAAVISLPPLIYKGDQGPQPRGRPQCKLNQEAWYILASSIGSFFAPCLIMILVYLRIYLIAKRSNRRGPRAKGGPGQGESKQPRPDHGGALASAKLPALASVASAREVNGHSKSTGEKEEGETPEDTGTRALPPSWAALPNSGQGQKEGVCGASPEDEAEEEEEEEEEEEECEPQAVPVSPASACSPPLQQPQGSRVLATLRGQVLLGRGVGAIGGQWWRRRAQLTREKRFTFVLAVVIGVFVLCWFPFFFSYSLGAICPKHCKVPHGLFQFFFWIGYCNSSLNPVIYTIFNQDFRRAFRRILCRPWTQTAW

[8] = target: T3, Alpha-2C adrenergic receptor (Homo sapiens, UniProt P18825); experiment: as §1, with “ADRA2C” for “HTR1B”
T3 sequence (P18825 whole entry): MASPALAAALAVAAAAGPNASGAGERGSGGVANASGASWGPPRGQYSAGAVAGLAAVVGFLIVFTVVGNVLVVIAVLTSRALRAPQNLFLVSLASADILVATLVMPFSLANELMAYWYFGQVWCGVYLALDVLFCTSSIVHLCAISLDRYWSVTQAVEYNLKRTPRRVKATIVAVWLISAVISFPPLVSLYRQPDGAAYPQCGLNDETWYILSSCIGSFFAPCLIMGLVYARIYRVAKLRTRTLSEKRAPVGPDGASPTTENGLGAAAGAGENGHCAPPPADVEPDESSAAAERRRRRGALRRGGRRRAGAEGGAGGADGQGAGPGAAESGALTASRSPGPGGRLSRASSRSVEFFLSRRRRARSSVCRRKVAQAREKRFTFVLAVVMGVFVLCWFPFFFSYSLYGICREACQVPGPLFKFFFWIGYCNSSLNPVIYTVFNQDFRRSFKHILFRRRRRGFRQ

[9] = target: Muscarinic acetylcholine receptor M3 (Homo sapiens, UniProt P20309); experiment: as §1, with “CHRM3” for “HTR1B”
[10] = target: T4, Muscarinic acetylcholine receptor M4 (Homo sapiens, UniProt P08173); experiment: as §1, with “CHRM4” for “HTR1B”
T4 sequence (P08173 whole entry): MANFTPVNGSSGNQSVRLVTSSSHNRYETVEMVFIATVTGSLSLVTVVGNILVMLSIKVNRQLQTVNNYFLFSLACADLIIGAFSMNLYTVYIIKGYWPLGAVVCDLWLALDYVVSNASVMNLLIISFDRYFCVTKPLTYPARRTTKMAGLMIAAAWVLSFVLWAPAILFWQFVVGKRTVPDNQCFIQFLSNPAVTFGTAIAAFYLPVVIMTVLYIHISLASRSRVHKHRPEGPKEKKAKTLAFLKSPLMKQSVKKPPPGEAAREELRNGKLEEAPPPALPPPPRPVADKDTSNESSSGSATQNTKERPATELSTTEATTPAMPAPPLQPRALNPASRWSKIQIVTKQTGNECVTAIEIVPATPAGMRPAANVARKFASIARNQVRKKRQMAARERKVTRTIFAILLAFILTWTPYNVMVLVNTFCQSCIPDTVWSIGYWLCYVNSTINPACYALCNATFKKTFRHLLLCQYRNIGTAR

[11] = target: T5, 5-hydroxytryptamine receptor 3A (Homo sapiens, UniProt P46098); experiment: as §1, with “HTR3A” for “HTR1B”
T5 sequence (P46098 whole entry): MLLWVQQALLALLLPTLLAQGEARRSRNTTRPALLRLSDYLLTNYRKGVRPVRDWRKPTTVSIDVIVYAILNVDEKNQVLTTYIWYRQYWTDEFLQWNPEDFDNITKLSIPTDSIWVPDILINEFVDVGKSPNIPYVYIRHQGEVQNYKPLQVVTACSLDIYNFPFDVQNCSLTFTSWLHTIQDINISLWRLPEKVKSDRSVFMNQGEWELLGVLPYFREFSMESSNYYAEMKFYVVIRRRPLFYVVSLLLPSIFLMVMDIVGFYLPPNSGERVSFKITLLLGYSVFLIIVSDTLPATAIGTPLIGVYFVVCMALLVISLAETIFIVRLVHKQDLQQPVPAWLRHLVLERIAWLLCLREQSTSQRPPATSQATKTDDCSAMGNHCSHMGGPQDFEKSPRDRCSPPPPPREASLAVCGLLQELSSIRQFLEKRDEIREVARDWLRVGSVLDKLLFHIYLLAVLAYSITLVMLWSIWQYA

Histamine H2 receptor = Histamine H2 receptor (Homo sapiens, UniProt P25021); experiment: as §1, with “HRH2” for “HTR1B”
Sequence of Histamine H2 receptor (P25021 whole entry): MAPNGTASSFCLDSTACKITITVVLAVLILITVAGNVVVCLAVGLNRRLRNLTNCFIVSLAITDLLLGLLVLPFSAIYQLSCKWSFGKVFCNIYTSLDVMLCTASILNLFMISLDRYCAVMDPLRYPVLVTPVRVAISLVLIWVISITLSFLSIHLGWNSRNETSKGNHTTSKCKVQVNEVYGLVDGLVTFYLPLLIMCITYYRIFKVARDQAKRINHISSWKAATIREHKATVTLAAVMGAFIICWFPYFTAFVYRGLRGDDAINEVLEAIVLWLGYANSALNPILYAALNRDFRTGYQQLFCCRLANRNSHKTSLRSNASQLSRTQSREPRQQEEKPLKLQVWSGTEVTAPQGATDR

Sequence of Mu-type opioid receptor (P35372 whole entry): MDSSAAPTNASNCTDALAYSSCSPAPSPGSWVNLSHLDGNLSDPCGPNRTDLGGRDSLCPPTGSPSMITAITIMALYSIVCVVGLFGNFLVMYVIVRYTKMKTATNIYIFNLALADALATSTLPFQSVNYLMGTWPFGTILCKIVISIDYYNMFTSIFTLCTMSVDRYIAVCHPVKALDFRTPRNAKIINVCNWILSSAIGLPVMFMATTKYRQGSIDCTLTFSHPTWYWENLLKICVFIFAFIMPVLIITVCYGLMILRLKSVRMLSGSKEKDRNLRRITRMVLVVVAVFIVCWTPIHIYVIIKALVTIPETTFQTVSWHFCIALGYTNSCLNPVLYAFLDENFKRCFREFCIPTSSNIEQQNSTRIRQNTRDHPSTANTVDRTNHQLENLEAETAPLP
Sequence of 5-hydroxytryptamine receptor 1B (P28222 whole entry): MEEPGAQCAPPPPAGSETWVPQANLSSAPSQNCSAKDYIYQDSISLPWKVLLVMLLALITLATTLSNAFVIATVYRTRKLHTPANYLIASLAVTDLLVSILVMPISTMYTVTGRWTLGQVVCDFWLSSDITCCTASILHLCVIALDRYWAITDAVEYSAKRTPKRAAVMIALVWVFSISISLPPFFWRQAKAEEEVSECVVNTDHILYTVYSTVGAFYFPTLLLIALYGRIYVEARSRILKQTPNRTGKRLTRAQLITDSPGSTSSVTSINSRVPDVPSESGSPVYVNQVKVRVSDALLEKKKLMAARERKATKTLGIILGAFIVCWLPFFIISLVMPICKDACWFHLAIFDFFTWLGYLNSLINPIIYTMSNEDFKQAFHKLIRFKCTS
Sequence of Muscarinic acetylcholine receptor M3 (P20309 whole entry): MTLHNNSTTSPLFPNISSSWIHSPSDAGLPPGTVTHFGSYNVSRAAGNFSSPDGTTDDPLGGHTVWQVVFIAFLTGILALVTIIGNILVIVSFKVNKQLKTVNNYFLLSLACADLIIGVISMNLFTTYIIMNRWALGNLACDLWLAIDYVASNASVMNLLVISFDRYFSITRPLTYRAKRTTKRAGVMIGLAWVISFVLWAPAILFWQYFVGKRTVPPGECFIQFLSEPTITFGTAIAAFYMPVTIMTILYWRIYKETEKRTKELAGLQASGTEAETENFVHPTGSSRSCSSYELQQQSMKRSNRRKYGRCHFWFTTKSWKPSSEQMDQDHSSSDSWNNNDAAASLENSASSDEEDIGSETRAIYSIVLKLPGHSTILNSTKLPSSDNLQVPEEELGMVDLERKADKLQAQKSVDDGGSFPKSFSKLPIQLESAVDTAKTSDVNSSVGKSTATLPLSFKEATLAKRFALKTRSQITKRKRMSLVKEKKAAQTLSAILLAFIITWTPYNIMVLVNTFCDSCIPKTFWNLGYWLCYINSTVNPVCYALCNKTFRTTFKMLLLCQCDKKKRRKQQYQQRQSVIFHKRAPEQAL
Sequence of Sodium-dependent dopamine transporter (Q01959 whole entry): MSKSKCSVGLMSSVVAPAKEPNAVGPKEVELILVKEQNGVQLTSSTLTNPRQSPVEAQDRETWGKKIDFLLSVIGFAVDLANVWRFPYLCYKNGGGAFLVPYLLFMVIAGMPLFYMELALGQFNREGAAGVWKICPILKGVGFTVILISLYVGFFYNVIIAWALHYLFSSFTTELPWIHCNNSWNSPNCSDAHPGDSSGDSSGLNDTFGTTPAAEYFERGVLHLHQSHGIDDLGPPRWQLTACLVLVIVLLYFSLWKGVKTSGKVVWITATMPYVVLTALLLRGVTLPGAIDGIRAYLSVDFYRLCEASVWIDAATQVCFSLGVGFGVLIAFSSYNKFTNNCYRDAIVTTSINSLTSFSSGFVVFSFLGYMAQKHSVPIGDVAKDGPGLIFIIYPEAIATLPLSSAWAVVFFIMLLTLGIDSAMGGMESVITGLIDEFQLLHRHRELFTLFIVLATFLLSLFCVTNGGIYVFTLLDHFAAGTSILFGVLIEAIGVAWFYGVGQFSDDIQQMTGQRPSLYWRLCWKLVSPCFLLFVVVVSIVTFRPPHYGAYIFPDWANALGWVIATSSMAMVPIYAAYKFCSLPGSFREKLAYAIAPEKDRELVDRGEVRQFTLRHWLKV
Sequence of Kappa-type opioid receptor (P41145 whole entry): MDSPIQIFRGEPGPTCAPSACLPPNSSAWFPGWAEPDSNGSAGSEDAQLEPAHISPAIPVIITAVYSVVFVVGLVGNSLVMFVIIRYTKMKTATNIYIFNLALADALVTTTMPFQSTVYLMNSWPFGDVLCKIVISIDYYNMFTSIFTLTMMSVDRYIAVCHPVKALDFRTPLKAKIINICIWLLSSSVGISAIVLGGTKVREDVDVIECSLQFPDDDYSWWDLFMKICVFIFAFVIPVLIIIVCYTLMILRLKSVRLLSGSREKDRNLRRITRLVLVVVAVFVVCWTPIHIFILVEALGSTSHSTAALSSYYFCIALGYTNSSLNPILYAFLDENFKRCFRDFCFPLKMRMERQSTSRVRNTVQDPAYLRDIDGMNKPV
Sequence of Sodium-dependent noradrenaline transporter (P23975 whole entry): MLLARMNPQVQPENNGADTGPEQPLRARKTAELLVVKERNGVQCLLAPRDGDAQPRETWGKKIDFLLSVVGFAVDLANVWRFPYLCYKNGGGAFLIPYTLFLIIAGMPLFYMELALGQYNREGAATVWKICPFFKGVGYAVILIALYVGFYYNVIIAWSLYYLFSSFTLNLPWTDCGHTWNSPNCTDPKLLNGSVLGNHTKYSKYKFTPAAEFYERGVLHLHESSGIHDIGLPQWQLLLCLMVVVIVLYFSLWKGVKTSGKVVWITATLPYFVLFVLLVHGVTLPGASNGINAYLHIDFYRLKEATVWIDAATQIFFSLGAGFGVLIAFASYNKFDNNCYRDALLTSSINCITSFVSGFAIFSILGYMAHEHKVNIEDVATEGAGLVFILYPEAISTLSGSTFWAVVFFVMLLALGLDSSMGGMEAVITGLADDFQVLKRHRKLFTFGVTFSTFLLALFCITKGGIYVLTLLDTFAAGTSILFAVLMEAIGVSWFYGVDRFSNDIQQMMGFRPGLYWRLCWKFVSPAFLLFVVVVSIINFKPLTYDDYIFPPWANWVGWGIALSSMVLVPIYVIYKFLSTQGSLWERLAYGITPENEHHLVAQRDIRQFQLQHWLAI
Sequence of 5-hydroxytryptamine receptor 2B (P41595 whole entry): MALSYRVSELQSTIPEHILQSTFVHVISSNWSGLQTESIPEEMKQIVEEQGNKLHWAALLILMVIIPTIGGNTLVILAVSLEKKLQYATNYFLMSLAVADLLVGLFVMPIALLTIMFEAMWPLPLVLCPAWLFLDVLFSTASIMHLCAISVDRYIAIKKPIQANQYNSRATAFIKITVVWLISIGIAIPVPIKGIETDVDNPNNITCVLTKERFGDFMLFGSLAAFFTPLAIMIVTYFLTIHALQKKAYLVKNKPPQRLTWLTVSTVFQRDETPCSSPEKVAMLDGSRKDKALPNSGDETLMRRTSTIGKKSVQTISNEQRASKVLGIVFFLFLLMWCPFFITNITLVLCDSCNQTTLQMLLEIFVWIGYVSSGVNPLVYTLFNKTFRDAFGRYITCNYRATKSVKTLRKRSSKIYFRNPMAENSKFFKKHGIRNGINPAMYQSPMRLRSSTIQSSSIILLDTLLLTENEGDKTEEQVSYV

pKi [1]: 5.67
pKi [2]: 5.55
pKi [3]: 6.17
pKi [4]: 5.71
pKi (Mu-type opioid receptor): 5.95
pKi [5]: 6.30
pKi [6]: 6.12
pKi [7]: 5.49
pKi [8]: 6.23
pKi [9]: 6.76
pKi [10]: 7.33
pKi [11]: 5.78
pKi (Histamine H2 receptor): 5.55
Structure (SMILES): CCOC(=O)c1c(C)[nH]c2ccc3c(c12)CN1CCc2cc(OC)ccc2C1O3 (stereo not drawn)
